Experimental data published in the supplement of paper PMC11451515.

Tested on: NOMO1
Assay: cell viability relative to DMSO control; higher = less cytotoxic
Conditions: 48 h
Method in brief: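 Cells were incubated for 48 h at 37°C before CellTiter-Glo One luminescence was read. The cells were NOMO1 or SEM (500 cells/well) or P12-Ichikawa (1000 cells/well) leukemia cells, adapted for at least four passages in each medium and seeded in 1536-well plates (5 μl). Dosing used library compounds in DMSO applied by pin over 11 threefold points, 47 μM to 0.79 nM. Viability is the per-plate percentage of DMSO wells, with cell-free wells as background.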

[1] = HPLM + 10% dialyzed FBS, 0.000781 µM
[2] = HPLM + 10% dialyzed FBS, 0.00234 µM
[3] = HPLM + 10% dialyzed FBS, 0.00702 µM
[4] = HPLM + 10% dialyzed FBS, 0.0211 µM
[5] = HPLM + 10% dialyzed FBS, 0.0632 µM
[6] = HPLM + 10% dialyzed FBS, 0.19 µM
[7] = HPLM + 10% dialyzed FBS, 0.569 µM
[8] = HPLM + 10% dialyzed FBS, 1.71 µM
[9] = HPLM + 10% dialyzed FBS, 5.12 µM
[10] = HPLM + 10% dialyzed FBS, 15.4 µM
[11] = HPLM + 10% dialyzed FBS, 46.1 µM
[12] = RPMI 5 mM glucose + 10% FBS, 0.000781 µM
[13] = RPMI 5 mM glucose + 10% FBS, 0.00234 µM
[14] = RPMI 5 mM glucose + 10% FBS, 0.00702 µM
[15] = RPMI 5 mM glucose + 10% FBS, 0.0211 µM
[16] = RPMI 5 mM glucose + 10% FBS, 0.0632 µM
[17] = RPMI 5 mM glucose + 10% FBS, 0.19 µM
[18] = RPMI 5 mM glucose + 10% FBS, 0.569 µM
[19] = RPMI 5 mM glucose + 10% FBS, 1.71 µM
[20] = RPMI 5 mM glucose + 10% FBS, 5.12 µM
[21] = RPMI 5 mM glucose + 10% FBS, 15.4 µM
[22] = RPMI 5 mM glucose + 10% FBS, 46.1 µM
[23] = RPMI 5 mM glucose + 10% dialyzed FBS, 0.000781 µM
[24] = RPMI 5 mM glucose + 10% dialyzed FBS, 0.00234 µM
[25] = RPMI 5 mM glucose + 10% dialyzed FBS, 0.00702 µM
[26] = RPMI 5 mM glucose + 10% dialyzed FBS, 0.0211 µM
[27] = RPMI 5 mM glucose + 10% dialyzed FBS, 0.0632 µM
[28] = RPMI 5 mM glucose + 10% dialyzed FBS, 0.19 µM
[29] = RPMI 5 mM glucose + 10% dialyzed FBS, 0.569 µM
[30] = RPMI 5 mM glucose + 10% dialyzed FBS, 1.71 µM
[31] = RPMI 5 mM glucose + 10% dialyzed FBS, 5.12 µM
[32] = RPMI 5 mM glucose + 10% dialyzed FBS, 15.4 µM
[33] = RPMI 5 mM glucose + 10% dialyzed FBS, 46.1 µM

| SMILES | cell viability [1] | cell viability [2] | cell viability [3] | cell viability [4] | cell viability [5] | cell viability [6] | cell viability [7] | cell viability [8] | cell viability [9] | cell viability [10] | cell viability [11] | cell viability [12] | cell viability [13] | cell viability [14] | cell viability [15] | cell viability [16] | cell viability [17] | cell viability [18] | cell viability [19] | cell viability [20] | cell viability [21] | cell viability [22] | cell viability [23] | cell viability [24] | cell viability [25] | cell viability [26] | cell viability [27] | cell viability [28] | cell viability [29] | cell viability [30] | cell viability [31] | cell viability [32] | cell viability [33] |
| --- | --- | --- | --- | --- | --- | --- | --- | --- | --- | --- | --- | --- | --- | --- | --- | --- | --- | --- | --- | --- | --- | --- | --- | --- | --- | --- | --- | --- | --- | --- | --- | --- | --- |
| CCCCCCCCCCCCCCCCCCOP(=O)([O-])OC1CC[N+](C)(C)CC1 | 93.4% | 114% | 94.8% | 114% | 110% | 120% | 114% | 107% | 107% | 98.4% | 99% | 90.5% | 105% | 113% | 121% | 98.5% | 113% | 120% | 105% | 110% | 93.8% | 96.4% | 96.6% | 107% | 105% | 103% | 100% | 118% | 110% | 102% | 106% | 93.2% | 84.7% |
| OCCCNc1cc(-c2ccnc(Nc3cccc(Cl)c3)n2)ccn1 | 106% | 107% | 119% | 119% | 114% | 80.4% | 14.1% | 7.46% | 8.09% | 6.31% | 4.31% | 92.2% | 98.4% | 117% | 111% | 107% | 54.5% | 18.8% | 9.75% | 8.02% | 7.79% | 4.61% | 97.5% | 95.8% | 100% | 106% | 100% | 63.3% | 15.8% | 7.75% | 7.44% | 7.1% | 5.05% |
| N[C@@H](CC(=O)N1CCn2c(nnc2C(F)(F)F)C1)Cc1cc(F)c(F)cc1F | 119% | 98.7% | 111% | 119% | 100% | 106% | 103% | 102% | 109% | 94.9% | 83.5% | 83.3% | 97.4% | 84.6% | 86.4% | 92.4% | 84.8% | 86% | 83.4% | 96.2% | 85.1% | 82.9% | 103% | 96.3% | 99.5% | 95.2% | 106% | 91.7% | 93.4% | 100% | 96.2% | 94.8% | 79.5% |
| COC(=O)[C@@H](N)CCCNC(=N)N[N+](=O)[O-] | 92.9% | 97.2% | 105% | 88% | 103% | 118% | 99.1% | 96.7% | 104% | 93.9% | 103% | 90% | 85.6% | 96.3% | 88.9% | 86.9% | 86.3% | 92.4% | 88.1% | 92.6% | 93.3% | 102% | 76.9% | 96.3% | 93.8% | 95.7% | 97.4% | 103% | 97.9% | 93.4% | 94.2% | 101% | 105% |
| COc1cc(OC)c(NC(=O)Nc2cc(C)on2)cc1Cl | 97.6% | 96.4% | 100% | 106% | 106% | 84.4% | 119% | 114% | 100% | 105% | 96.9% | 83.5% | 96.7% | 85.2% | 92.7% | 93.8% | 97.9% | 93.9% | 91% | 90.1% | 88.7% | 99.5% | 86.8% | 83.8% | 81.3% | 85.6% | 97.3% | 89.4% | 98% | 79.7% | 83% | 88.1% | 88.3% |
| CN(C)c1ccc2cc(C(=O)N[C@@H](CCCNC(=N)CCl)C(=O)NCc3ccccc3)ccc2c1 | 108% | 128% | 108% | 121% | 125% | 107% | 112% | 112% | 106% | 87.2% | 14% | 92% | 119% | 104% | 96.3% | 98.5% | 102% | 97% | 98.6% | 100% | 85.4% | 8.34% | 114% | 109% | 103% | 110% | 111% | 119% | 115% | 105% | 105% | 98.7% | 12.5% |
| COC[C@H]1OC(=O)C2=COC3=C2[C@@]1(C)\C4=C(\[C@@H]5CC[C@H](O)[C@@]5(C)C[C@H]4OC(C)=O)C3=O | 106% | 112% | 117% | 111% | 132% | 134% | 118% | 113% | 88.6% | 93.1% | 70.6% | 98.9% | 111% | 117% | 107% | 123% | 114% | 117% | 109% | 110% | 102% | 87.6% | 88.2% | 103% | 110% | 106% | 118% | 126% | 115% | 119% | 97.9% | 94% | 83.5% |
| N#CC(=C(/N)Sc1ccccc1N)/C(C#N)=C(\N)Sc1ccccc1N | 118% | 119% | 122% | 128% | 134% | 140% | 130% | 101% | 107% | 90.8% | 71% | 115% | 115% | 121% | 120% | 120% | 121% | 118% | 117% | 114% | 120% | 97.8% |  |  |  |  |  |  |  |  |  |  |  |
| C=CCn1c(=O)c2cnc(Nc3ccc(N4CCN(C)CC4)cc3)nc2n1-c1cccc(C(C)(C)O)n1 | 125% | 116% | 123% | 122% | 125% | 96.2% | 52.1% | 31.8% | 24.3% | 28.1% | 29.2% | 118% | 117% | 138% | 128% | 140% | 132% | 122% | 36.9% | 18.5% | 17.9% | 18.6% |  |  |  |  |  |  |  |  |  |  |  |
| O=C(NNC(=O)c1ccc(CN[S+](=O)([O-])c2ccc(F)c(Cl)c2)cc1)c1ccccc1 | 105% | 105% | 116% | 121% | 112% | 103% | 104% | 117% | 113% | 82.7% | 110% | 84.1% | 85.2% | 85.2% | 89.3% | 92.9% | 99.5% | 93.3% | 91.3% | 96.7% | 94.5% | 92.6% | 92.1% | 98.5% | 107% | 94.2% | 111% | 105% | 103% | 102% | 115% | 112% | 115% |
| COc1ccc2c(c1OC)CN1CCc3cc4c(cc3C1C2)OCO4 (stereo not given) | 86.4% | 82.4% | 98.4% | 99.3% | 109% | 82.5% | 96.7% | 44.7% | 14.9% | 6.67% | 5.61% | 106% | 92.4% | 89.2% | 98.8% | 98.4% | 89.9% | 100% | 42.6% | 16% | 6.1% | 5.21% | 88% | 92.7% | 93.3% | 103% | 102% | 92.2% | 92.9% | 49.3% | 20.5% | 5.52% | 4.95% |
| NC\1=N\C(=O)N(\C=C1)[C@H]\2[C@H](O)[C@H](O)C(=C2F)\CO | 78.5% | 111% | 105% | 101% | 110% | 90.8% | 94.7% | 67.5% | 32.1% | 33.6% | 11.3% | 86.3% | 112% | 117% | 106% | 107% | 88.2% | 93% | 83.5% | 54.6% | 12.6% | 7.41% | 89.1% | 96.9% | 104% | 111% | 109% | 107% | 111% | 86.4% | 27.7% | 10.2% | 7.62% |
| C[C@@H]1CC[C@@]2(OC1)OC1CC3C4CC=C5CC(O)CCC5(C)C4CCC3(C)C1[C@@H]2C (stereo not given in full) | 95.6% | 84.6% | 105% | 114% | 113% | 112% | 116% | 127% | 117% | 44.5% | 16.5% | 89.7% | 87.3% | 95% | 95.3% | 96% | 90.6% | 93% | 98.5% | 90.1% | 48.5% | 11.8% | 90.6% | 83.5% | 97% | 87.6% | 87.4% | 93.1% | 91.9% | 90.8% | 88.3% | 73.4% | 29.1% |
| CN(C)CCN(Cc1ccc(Cl)cc1)c1ccccn1.Cl | 84.4% | 90.2% | 89.4% | 95.3% | 91% | 78.5% | 98.2% | 63.8% | 93.9% | 91.1% | 90.3% | 85.2% | 90% | 92.7% | 92.6% | 84.1% | 96.8% | 99.2% | 85.9% | 92% | 80% | 90.5% | 83.5% | 95.1% | 91.7% | 96.1% | 94.1% | 89.3% | 103% | 50.5% | 87.3% | 89.8% | 79.6% |
